Measurements taken from PMC8388125, “Kinetic and Structural Characterization of the Self-Labeling Protein Tags HaloTag7, SNAP-tag, and CLIP-tag” (Biochemistry, 2021).

Legend:
HT7^D106A [1] = molecular target: T1, HT7^D106A (Rhodococcus sp., UniProt P59336, A155T/A167V/A224E/C128F/C176G/D106A/D78G/E160K/E257K/G292T/H272N/K175M/K195N/L47V/L88M/N227D/P291S/S2A/S58T/T264A/V172T/Y273L/Y87F); assay: Affinity of HT7^D106A for CA-Ac via FP competition assay against CA-TMR; type: binding
T1 construct: made in house; host or cells: E. coli BL21(DE3)-pLysS
T1 sequence (P59336 other isoform, or with tags, fused parts or gaps with the stated changes): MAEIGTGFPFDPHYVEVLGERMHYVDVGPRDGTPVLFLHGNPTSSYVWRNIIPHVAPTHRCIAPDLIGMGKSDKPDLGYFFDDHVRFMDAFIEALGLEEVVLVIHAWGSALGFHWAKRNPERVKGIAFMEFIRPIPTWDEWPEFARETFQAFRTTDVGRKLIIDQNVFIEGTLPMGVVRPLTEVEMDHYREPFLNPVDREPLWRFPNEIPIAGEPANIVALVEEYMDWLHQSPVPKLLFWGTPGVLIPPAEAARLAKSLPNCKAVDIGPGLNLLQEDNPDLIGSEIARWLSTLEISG
Procedure: The binding affinity of HT7^D106A for CA-Ac was determined by a fluorescence polarization competition assay against CA-TMR. Therein, 5 μM protein and 50 nM CA-TMR were titrated against CA-Ac concentrations ranging from 80 μM to 10 mM in activity buffer supplemented with 0.5 g/L BSA. Assays were performed in low-volume nonbinding black 384-well plates (Corning Inc.) with a final volume of 20 μL using a microplate reader (Spark20M, Tecan). Obtained FP values were averaged and fitted to a four-parameter logistic curve (eq 3) to estimate the I50 value. The lower plateau was fixed to the measured FP value of the free dye to improve the fit. The dissociation constant of CA-Ac was calculated as described by Rossi and Taylor.[35] [drawing 3] 3 where FPmin is the fluorescence polarization of the free fluorophore (lower plateau), FPmax is the maximal fluorescence polarization of the fully bound fluorophore (upper plateau), I50 is the half-maximal effective concentration, and [ligand] is the ligand concentration.
(§1) Free binding energies were calculated from Kd values according to eq 4: [drawing 4] 4 where ΔG is the free binding energy, R is the universal gas constant, T is the temperature, and Kd is the dissociation constant.

HaloTag7 (HT7) [2] = molecular target: T2, HaloTag7 (HT7) (Rhodococcus sp., UniProt P59336, A155T/A167V/A224E/C128F/C176G/D78G/E160K/E257K/G292T/H272N/K175M/K195N/L47V/L88M/N227D/P291S/S2A/S58T/T264A/V172T/Y273L/Y87F); assay: HT7 competitive labeling kinetics against CA-Alexa488; type: biochemical; details: HT7, nonfluorescent substrates, competition with CA-Alexa488, 37 °C
T2 construct: made in house; host or cells: E. coli BL21(DE3)-pLysS
T2 sequence (P59336 other isoform, or with tags, fused parts or gaps with the stated changes): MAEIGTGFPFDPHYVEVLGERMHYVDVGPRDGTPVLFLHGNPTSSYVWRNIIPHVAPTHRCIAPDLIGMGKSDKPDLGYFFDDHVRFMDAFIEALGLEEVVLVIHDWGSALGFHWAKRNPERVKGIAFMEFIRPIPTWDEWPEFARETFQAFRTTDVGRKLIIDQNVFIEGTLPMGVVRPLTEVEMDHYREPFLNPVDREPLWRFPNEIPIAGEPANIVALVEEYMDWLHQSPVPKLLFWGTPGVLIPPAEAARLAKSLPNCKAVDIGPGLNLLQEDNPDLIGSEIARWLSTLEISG
Procedure: Competitive kinetics were measured by recording FP over time using a microplate reader (Spark20M, Tecan). The final concentrations of CA-Alexa488 (50 nM) and HT7 protein (200 nM) remained constant with varying concentrations of nonfluorescent substrates (0–1 μM) in activity buffer supplemented with 0.5 g/L BSA. Assays were performed in black nonbinding flat bottom 96-well plates with a final reaction volume of 200 μL. Labeling reactions were started by adding the HT7 protein to wells containing CA-Alexa488 and nonfluorescent substrates using an electronic 96-channel pipettor (Integra Bioscience Corp., Hudson, NH). The FP of free CA-Alexa488 was measured to obtain a baseline.
Data were fitted to a simplified kinetic competition model (eqs 19 and 20) described by differential eqs 21–25 using DynaFit. The dead time of the measurements and baseline FP value were put in as fixed parameters. Standard deviations (normal distribution verified) and confidence intervals of fitted parameters were estimated with the Monte Carlo method with standard settings (N = 1000, 5% worst fits discarded). [drawing 19] 19 [drawing 20] 20 where P is the SLP protein, S is the fluorescent SLP substrate, I is the nonfluorescent SLP substrate (inhibitor), PS is the protein–fluorescent substrate conjugate, and PI is the protein–nonfluorescent substrate conjugate. [drawing 21] 21 [drawing 22] 22 [drawing 23] 23 [drawing 24] 24 [drawing 25] 25

[3] = system: HOB (halo-based oligonucleotide binder, HT7 variant); assay: HOB labeling kinetics via stopped flow (fluorescence anisotropy); type: biochemical, Rhodococcus sp.
Procedure: (§2) Labeling kinetics of HT7 with CA-TMR, CA-JF549, CA-CPY, CA-LIVE580, and CA-JF669 and labeling kinetics of HOB with CA-TMR were measured by recording fluorescence anisotropy changes over time using a BioLogic SFM-400 stopped-flow instrument (BioLogic Science Instruments, Claix, France) in a single-mixing configuration at 37 °C. HT7 protein and substrates in activity buffer were mixed in a 1:1 stoichiometry to reach a recordable speed for these fast reactions and to increase the information content of the traces. Concentrations were varied from 0.125 to 1 μM. The anisotropy of the free substrate was measured to obtain a baseline.
Kinetic stopped-flow data were preprocessed using a custom R script.[36],[37] Recorded pretrigger time points were removed, and time points were adjusted to start at time zero. Values from replicates were averaged. The anisotropy of the free dye was calculated by averaging anisotropy values of the baseline measurements. Preprocessed data were fitted to a kinetic model (eqs 5 and 6) described by differential eqs 7–10 using the DynaFit software.[38] The anisotropy of the free dye and the mixing delay of the stopped-flow machine were set as fixed offset and delay parameters in DynaFit. […] In the case of SNAP kinetics with BG-TMR, the substrate concentration was fitted by DynaFit to rule out quantification errors of the BG-quenched fluorophore. […]

HT7^D106A [4] = molecular target: T1, HT7^D106A; assay: Affinity of HT7^D106A for CA substrates by fluorescence polarization; type: binding
Procedure: Binding affinities of HT7^D106A or HOB^D106A for chloroalkane (CA) substrates were determined by fluorescence polarization (FP, eq 1) measurements using a microplate reader (Spark20M, Tecan Group AG, Männedorf, Switzerland). The fluorescent substrates (10 nM) were titrated against different protein concentrations (0–250 μM) in activity buffer supplemented with 0.5 g/L bovine serum albumin (BSA). Assays were performed in black low-volume nonbinding 384-well plates (Corning Inc., Corning, NY) with a final volume of 20 μL. Obtained FP values were averaged and fitted to a single-site binding model (eq 2) to estimate Kd values for each fluorescent substrate. The FP value of each dye fully reacted with the native HT7 was used to improve fitting of the upper plateau of the curves by adding an extra data point at a protein concentration of 0.1 M. [drawing 1] 1 where FP is the fluorescence polarization, I∥ is the fluorescence intensity parallel to the excitation light polarization, I⊥ is the fluorescence intensity perpendicular to the excitation light polarization, and G is the grating factor (G = I∥/I⊥). [drawing 2] 2 where FPmin is the fluorescence polarization of the free fluorophore (lower plateau), FPmax is the maximal fluorescence polarization of fully bound fluorophore (upper plateau), Kd is the dissociation constant, and [protein] is the protein concentration.
as §1

HaloTag7 (HT7) [5] = molecular target: T2, HaloTag7 (HT7); assay: HT7 labeling kinetics via stopped flow (fluorescence anisotropy); type: biochemical
Procedure: as §2
Kinetic stopped-flow data were preprocessed using a custom R script.[36],[37] Recorded pretrigger time points were removed, and time points were adjusted to start at time zero. Values from replicates were averaged. The anisotropy of the free dye was calculated by averaging anisotropy values of the baseline measurements. Preprocessed data were fitted to a kinetic model (eqs 5 and 6) described by differential eqs 7–10 using the DynaFit software.[38] The anisotropy of the free dye and the mixing delay of the stopped-flow machine were set as fixed offset and delay parameters in DynaFit. It was assumed that the protein substrate complex and the reacted product are contributing equally to the anisotropy signal. […] Standard deviations (normal distribution verified) and confidence intervals of fitted parameters were estimated with the Monte Carlo method[39] with standard settings (N = 1000, 5% worst fits discarded). In the case of SNAP kinetics with BG-TMR, the substrate concentration was fitted by DynaFit to rule out quantification errors of the BG-quenched fluorophore. Accurate fitting of the concentration was ensured by including conditions in which protein is limiting and no maximum FP value was reached.

SNAP^C145A = molecular target: T3, SNAP^C145A (Homo sapiens, UniProt P16455, A127T/A154D/C145A/C150Q/C62A/G131K/G132T/G153L/K125A/K32I/L33F/M134L/N157G/Q115S/Q116H/R128A/R135S/S151G/S152D/S159E); assay: Affinity of SNAP^C145A for BG and CP fluorescent substrates by fluorescence polarization; type: binding; details: SNAP^C145A, fluorescence polarization, room temperature
T3 construct: made in house; host or cells: E. coli BL21(DE3)-pLysS
T3 sequence (P16455 1-182 K32I/L33F/C62A/Q115S/Q116H/K125A/A127T/R128A/G131K/G132T/M134L/R135S/C145A/C150Q/S151G/S152D/G153L/A154D/N157G/S159E limits assumed): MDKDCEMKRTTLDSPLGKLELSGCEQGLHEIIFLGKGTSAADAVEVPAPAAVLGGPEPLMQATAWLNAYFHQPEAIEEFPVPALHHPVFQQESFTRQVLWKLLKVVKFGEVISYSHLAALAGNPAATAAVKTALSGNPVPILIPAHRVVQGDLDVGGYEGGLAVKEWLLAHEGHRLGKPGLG
Procedure: Binding affinities of SNAP^C145A and SNAPf^C145A for BG-Alexa488, CP-Alexa488, BG-fluorescein, CP-fluorescein, BG-MAP555, BG-JF549, BG-TMR(6), BG-TMR(5), CP-TMR, BG-CPY(6), BG-CPY(5), CP-CPY, BG-SiR, CP-SiR, BG-JF646, BG-Atto565, BG-Atto590, BG-sulfo-Cy3, BG-Cy3, BG-sulfo-Cy5, and BG-Cy5 were determined by fluorescence polarization in a manner analogous to that for HT7 affinities for CA substrates described above with the following changes. Fluorescent substrates were titrated at a final concentration of 50 nM against protein concentrations ranging from 0 to 250 μM at room temperature using 0.1 g/L BSA and 1 mM DTT (SNAP-FP buffer). The FP value of each dye fully reacted with the native SNAP/SNAPf was used to improve fitting of the upper plateau of the curves by adding an extra data point at a protein concentration of 0.005 M.

HT7^D106A [6] = molecular target: T1, HT7^D106A; assay: Affinity of HT7 for methyl-amide fluorophores by fluorescence polarization; type: binding
Procedure: Binding affinities of HT7 for methyl-amide fluorophores were determined by fluorescence polarization in a manner analogous to that of CA substrates described above with the following changes. Fluorescent substrates were used at a final concentration of 50 nM, and measurements were performed at room temperature.
as §1

CC(=O)NCCOCCOCCCCCCCl [CA-Ac, acetylated chloroalkane]
Kd (HT7^D106A [1]): 2620 µM | free binding energy (ΔG) (HT7^D106A [1]; HT7^D106A, calculated from Kd): −15.3 kJ mol^–1 | kapp (value ± standard deviation) (HaloTag7 (HT7) [2]): (1.53 ± 0.02) × 10^3 M^–1 s^–1

CN(C)c1ccc2c(-c3cc(C(=O)NCCOCCOCCCCCCCl)ccc3C(=O)[O-])c3ccc(=[N+](C)C)cc-3oc2c1 [CA-TMR, chloroalkane-PEG-tetramethylrhodamine]
fold decrease in kapp of HOB compared to HT7 ([3]; HOB vs HT7): 2.09 ± 0.01 fold | k2 (± S.D.) ([3]; HOB, stopped flow, model 2): 5.05 (± 0.13) s-1 | Kd (HT7^D106A [4]): 6.24 µM | fold decrease in affinity of the 5-substituted compared to the 6-substituted rhodamine substrate (HT7^D106A [4]; HT7^D106A): 6.31 fold | free binding energy (ΔG) (HT7^D106A [4]; HT7^D106A, calculated from Kd): 30.9 kJ mol^–1 | Kd (HaloTag7 (HT7) [5]): 0.327 µM | k2 (± S.D.) (HaloTag7 (HT7) [5]; HT7, stopped flow, model 2): 8.06 (± 0.29) s-1

CNC(=O)c1ccc(C(=O)[O-])c(-c2c3ccc(=[N+](C)C)cc-3oc3cc(N(C)C)ccc23)c1 [meAm-TMR]
Kd^C145A (SNAP^C145A): no affinity could be measured | free binding energy (ΔG) (HT7^D106A [6]; calculated from Kd): −16.7 kJ mol^–1 | Kd (HT7^D106A [6]; fluorescence polarization, room temperature): 1510 µM
